One compound from patent publication US12318452B2, “Degraders of WEE1 kinase” (DANA-FARBER CANCER INSTITUTE, INC., priority 2018, dated 2025) can be followed below.

One assay has as its system pCDK1 Y15. Description: Downstream signalling immunoblot in MOLT4 cells (pCDK1 Y15, cleaved PARP, γH2Ax). It is filed as cell-based. The protocol:
Whole cell lysates for immunoblotting were prepared by pelleting cells from each cell line at 4° C. (300 g) for 5 minutes. The resulting cell pellets were washed 1× with ice-cold PBS and then resuspended in RIPA lysis buffer (Sigma, cat #R0278) supplemented with protease and phosphatase inhibitor tablets (Roche cat #4906845001). Lysates were clarified at 14,000 rpm for 15 minutes at 4° C. prior to quantification by BCA assay (Pierce™, cat #23225). Whole cell lysates were loaded into Bolt 4-12% Bis-Tris Gels (Thermo Fisher, cat #NW04120BOX) and separated by electrophoreses at 95 V for 1.5 hours. The gels were transferred to a nitrocellulose membrane using the iBlot® Gel Transfer at P3 for 7 minutes (Thermo Fisher, cat #IB23001) and then blocked for 1 hour at room temperature in Odyssey® blocking buffer (LICOR® Biosciences, cat #927-50010). Membranes were probed using antibodies against the relevant proteins at 4° C. overnight in 20% Odyssey® Blocking Buffer in 1×TBST. Membranes were then washed three times with 1×TBST (at least 5 minutes per wash) followed by incubation with the IRDye® goat anti-mouse (LICOR®, cat #926-32210) or goat anti-rabbit (LICOR®, cat #926-32211) secondary antibody (diluted 1:10,000) in 20% Odyssey® Blocking Buffer in 1×TBST for 1 hour at room temperature. After three washes with 1×TBST (at least 5 minutes per wash), the immunoblots were visualized using the ODYSSEY® Infrared Imaging System (LICOR®).
MOLT4 cells were plated at 1.5 million cells per well in a 6-well plate, with 3 mL of media per well. Cells were then immediately treated with the indicated concentration of the indicated compound and incubated for the indicated amount of time. Cells were collected by transferring each well to a 15 mL conical, centrifuging (1000 rpm for 3 min), then washing the cell pellet 2× with cold PBS. Each cell pellet was then lysed in 100 μL of RIPA lysis buffer (+protease/phosphatase inhibitors). Samples were normalized and prepped in 4×LDS+10% β-mercaptoethanol and boiled for 5 min at 95° C. Lysates were probed for specified proteins by western blotting using the Bolt® system (Life Technologies™)
The effects of targeted Wee1 degradation on the cell cycle were evaluated. Wee1 is required for the temporal regulation of CDK1 at the G2/M cell-cycle checkpoint, and Wee1 loss therefore […] via activation of CDK1. Following loss of Wee1 activity, cells are expected to enter mitosis before completing DNA repair, ultimately resulting in excessive unrepaired DNA damage, mitotic catastrophe, and apoptosis (Beck et al., Mol. Cell Biol. 32:4226-4236 (2012)).
(In general: In western blotting, separated proteins are transferred to a membrane and probed.)

In the next assay the target is kinome (Wee1, PLK1). Description: KINOMEscan profiling. The assay is classed as binding. The settings on record: 1 μM.
The test system of the next assay is BT549 and HCC1806 cells. Description: Image-based cell cycle assay in TNBC cell lines. The following applies: data not shown. On the procedure: HCC1806, BT549, and Kuramochi cells were maintained in RPMI (Corning®, Corning, NY) supplemented with 10% fetal bovine serum (FBS) (Life Technologies™, Carlsbad, CA) and 1% penicillin/streptomycin (Corning, Corning®, NY). OVCAR8 cells were maintained as above with the addition of 2 mM L-glutamine (Life Technologies™, Carlsbad, CA). MCF10A cells were maintained in a 1:1 mix of DMEM:F12 supplemented with 5% horse serum (Life Technologies™ Carlsbad, CA), 1% penicillin/streptomycin (Corning®, Corning, NY), 20 ng/ml EGF (Peprotech®, Rocky Hill, NJ), 500 ng/ml hydrocortisone (Sigma-Aldrich®, St. Louis, MO), 10 μg/ml insulin (Sigma-Aldrich®, St. Louis, MO), and 100 ng/ml cholera toxin (Sigma-Aldrich®, St. Louis, MO). COV362 cells were maintained in DMEM (Corning®, Corning, NY) supplemented with 10% FBS (Life Technologies™, Carlsbad, CA), 1% penicillin/streptomycin (Corning®, Corning, NY) and 2 mM L-glutamine (Life Technologies™, Carlsbad, CA). The OCE1 cells were maintained in FOMI (Wit-Fo) (PMID: 24303006) supplemented with 25 ng/ml cholera toxin (Sigma-Aldrich®, St. Louis, MO). […]
Fixed cells were imaged with a 10× objective using an Operetta microscope and analyzed using the Columbus image data storage and analysis system (PerkinElmer®, Waltham, MA). […] The average LDR, EdU and phospho-histone H3 intensities within the nuclear masks were determined. […]

Turning to `C=CCn1c(=O)c2cnc(Nc3ccc(N4CCN(CCCNc5cccc6c5C(=O)N(C5CCC(=O)NC5=O)C6=O)CC4)cc3)nc2n1-c1cccc(C(C)(C)O)n1` (centres unmarked) [Compound 13, 4-((3-(4-(4-((2-allyl-1-(6-(2-hydroxypropan-2-yl)pyridin-2-yl)-3-oxo-2,3-dihydro-1H-pyrazolo[3,4-d]pyrimidin-6-yl)amino)phenyl)piperazin-1-yl)propyl)amino)-2-(2,6-dioxopiperidin-3-yl)isoindoline-1,3-dione], the “Dose from which pCDK1 Y15 is decreased” value with pCDK1 Y15 (CRBN−/− MOLT4 cells) stood at 1 μM. For the same compound, in the assay on pCDK1 Y15 (MOLT4 cells), the “Fold lower doses than AZD1775 for the same downstream effects” value is “up to 10 fold”. The “Dose from which pCDK1 Y15 is reduced” value with pCDK1 Y15 (parental MOLT4 cells) is 100 nM. Also, the “Kinase engagement in KINOMEscan” value on kinome (Wee1, PLK1) is “strong engagement of both Wee1 and PLK1”. Also, the “Changes in mitotic cell number” value with BT549 and HCC1806 cells is recorded as “greater changes in mitotic cell number than AZD1775”.
